Here are results for two substances from US12246004B2, “Therapeutic treatment of microsatellite unstable cancers” (THE BROAD INSTITUTE, INC., priority 2018, dated 2025).

One series deals with WRN. In words: Immunoblot of WRN levels after sgRNA transduction. In kind it is cell-based. As to conditions: KM12 cells expressing WRN cDNA (FIG. 2B). How it is done: For immunoblotting, cells were lysed in RIPA buffer (Sigma-Aldrich) supplemented with complete Protease Inhibitor Cocktail (Roche, 11697498001) and a Halt Phosphatase Inhibitor Cocktail (Thermo Fischer Scientific, 78428). For etoposide and hydroxyurea treatment (FIG. 4A), cells were treated with 10 μM etoposide and 1 mM hydroxyurea, respectively, 6 h before collection. Lysates were fractionated in 4-12% Bis-Tris gels (Invitrogen), which was then transferred to PVDF membranes (Immobilon-FL PVDF Millipore, IPFL00010) and blocked for an hour with Odyssey Blocking Buffer (PBS) (LI-COR Biosciences, 927-40000). Types of primary antibodies and the dilutions used for immunoblotting were as follows: anti-phospho-CHK2 (T68) (R&D Systems, AF1626, 1:400); anti-total CHK2 (Cell Signaling Technology, 3440, 1:1,000); anti-[…] (Cell Signaling Technology, 9718, 1:1,000); anti-GAPDH (Cell Signaling Technology, 5174, 1:1,000); anti-MLH1 (Cell Signaling Technology, 3515, 1:1,000); anti-MSH3 (BD Biosciences, 611390, 1:400); anti-WRN (Novus Biologicals, nb100-472, 1:1,000). The following secondary antibodies were used: goat anti-rabbit IRDye 800CW (LI-COR, 926-32211, 1:5,000), goat anti-rabbit IRDye 680LT (LI-COR, 926-68021), and goat anti-mouse IRDye 800CW (LI-COR, 926-32210). […]
On the technique in general: Immunoblotting shows a protein as a band on a membrane.

A further series has as its system KM12 cells. As to the kind of experiment: Luciferase competitive growth assay, rescue by ectopic WRN cDNA. The series is classed as cell-based. How it is done:
The catalytically active version, exonuclease-dead (E84A), helicase-dead (K577M) and dually exonuclease and helicase-dead (E84A/K577M) versions of WRN cDNA were a gift from R. J. Monnat (Addgene, plasmids 46038, 46036, 46035 and 46037, respectively). […] The WRN sequence was cloned into a modified lentiviral expression vector, pLX_TRC209, under an EF1A promoter and modified to contain a neomycin-selectable marker. Sanger sequencing of the vectors and genomic DNA after integration were performed to confirm sequence identity. Lentivirus was produced as described below and transduced into dually Cas9-Firefly-luciferase-expressing KM12 cells to create stable ectopic WRN cDNA-expressing cell lines.
Dual Cas9-Firefly-luciferase- and Renilla-luciferase-expressing cells were generated by transduction of Firefly-luciferase cDNA and Renilla-luciferase cDNA, respectively, in a pLX_TRC313 lentiviral expression vector containing a hygromycin-resistance gene. After hygromycin selection, these two versions of the cell line were co-seeded in a 96 well plate at the following densities per well for each version: ES2 2×10^3 cells per well, OVK18, 3×10^3 cells per well; SW620, 4×10^3 cells per well; KM12, 4×10^3 cells per well. The following day, cells were transduced with lentivirus expressing the indicated sgRNA and a puromycin-resistance gene in six replicates. The day following viral transduction, the medium was changed to include puromycin. Cells were split and assayed with the Dual-Glo Luciferase Assay System (Promega) per the manufacturer's recommendations every 3-4 days. Luminescence was determined using the Perkin Elmer EnVision 2105. Values are presented as the ratio of Firefly to Renilla-luciferase luminescence signal per condition and normalized to the mean of the corresponding negative control sgRNAs for each cell line. Experiments in FIG. 2C and FIG. 7B were performed three times. Two-tailed Student's t-tests were performed when comparing single sgRNAs (FIG. 2C). Two-way ANOVAs were performed when multiple WRN sgRNAs were compared to negative controls (FIG. 7B).

The subject of the next series is KM12 xenografts. In words: KM12 xenograft growth with doxycycline-inducible shRNA. As to conditions: doxycycline induction of shRNA (FIG. 2D). In kind it is in vivo, mice. Here is the method:
Studies were approved by the Institutional Animal Care and Use Committee (IACUC) of the Broad Institute under animal protocol 0194-01-18. IACUC guidelines on the ethical use and care of animals were followed. For growth curves, 10^6 KM12 cells expressing WRN shRNA 1 or WRN-C911 shRNA 1 were inoculated subcutaneously into right hind flank of approximately 8-week-old female SCID Hairless Outbred (SHO) mice obtained from Charles River Laboratories. Tumors were measured twice weekly with calipers and the tumor volumes were calculated using the formula π/6×(width^2×length). When primary tumors reached around 100 mm^3, the mice were randomized onto Control Teklad Global 18% Protein Rodent Diet or Teklad Global 18% Protein Rodent Diet containing 625 mg kg^−1 doxycycline hyclate. Mice remained on their respective diets throughout the remainder of the study. Animal body weights were recorded twice weekly during the course of the study for body condition scoring. For the growth curves, n=5 (4 from days 15-18), 5, 4, 4 for WRN shRNA 1 without doxycycline, WRN shRNA 1 with doxycycline, WRN-C911 shRNA 1 without doxycycline, WRN-C911 shRNA 1 with doxycycline treatment, respectively. One mouse treated with KM12 cells with WRN shRNA 1 without doxycycline was euthanized before day 15 because of tumor ulceration. No experiments exceeded the maximal tumor volumes of 2,000 mm^3 set forth by the IACUC. […]

The next series concerns MSS cells. As to the kind of experiment: Telomere PNA-FISH of metaphase spreads. The series is classed as cell-based. Conditions: two MSS cell lines; 96 h after induction of shRNA. Here is the method: (§1) In brief, 3×10^6 cells were plated in 10-cm dishes in the absence of doxycycline. For cells treated with doxycycline, 0.2 μg ml^−1 of doxycycline was added and refreshed every 48 h. Then, 96 h after adding doxycycline, cells were treated with 10 μg ml^−1 of colcemid for 3 h and then detached with trypsin. Half of the cell pellet was saved for immunoblot analysis. The other half of the cell pellet was treated with a hypotonic solution (60 mM KCl) and fixed with a 3:1 ratio of methanol:acidic acid. Metaphases were spread onto a slide and fixed with 3% formalin. The PNA-FISH probe ((CCCTAA)3 PNA probe (PNA Bio)) was applied to the slides and denatured at 85° C. for 3 min. The slides were washed with washing solution I (70% formamide, 0.1% Tween-20, 0.1% BSA in 10 mM Tris buffer, pH 7.5) twice and three times with washing solution II (150 mM NaCl, 0.1% Tween-20, 0.1% BSA in 50 mM Tris buffer, pH 7.5). Cy5-ATTCGTTGGAAACGGGA (SEQ ID NO: 28) was used to label centromeres. Images were captured with a Nikon Eclipse 80i microscope and processed with the NISElements BR software. In total, 30 to 60 metaphases were analyzed for cells of the indicated conditions. Two-tailed Student's 1-tests were performed (FIG. 4E). These experiments were performed twice.

The subject of another series is MSI cells. As to the kind of experiment: Telomere PNA-FISH of metaphase spreads. In kind it is cell-based. Conditions: two MSI cell lines; 96 h after induction of shRNA. How it is done:
as §1

Regarding “WRN EIJ sgRNA: sgRNA targeting a WRN exon-intron junction, target sequence AGCACGTACATAAGCATCAG (SEQ ID NO: 4) (only the sgRNA target sequence is given, scaffold and chemistry not given here, further chemistry not given here)”, the “Silencing of endogenous versus exogenous WRN (immunoblot)” value in the series on WRN is reported as “silencing endogenous WRN, but not exogenous WRN cDNA”. Besides, in the series on KM12 cells (Cas9-expressing KM12 cells, 9 days after sgRNA transduction (FIG. 2C)), the “Rescue of viability by WRN cDNA” value is on record as “rescued”. In addition, in the series with KM12 cells (KM12 cells (FIGS. 2B and 2C)), the “Rescue of viability by exonuclease-dead (E84A) WRN cDNA” value is on record as “did not attenuate rescue” and the “Rescue of viability by helicase-dead (K577M) WRN cDNA” value was “prevented rescue”.

“WRN shRNA 1: shRNA targeting WRN chosen from project DRIVE, CAGCACTGCCAATGGTTCCAA; SEQ ID NO: 5”: the Tumor growth entry in the series on KM12 xenografts is recorded as “significantly impaired tumor growth”. The “Chromosomal integrity (DSBs, fragmentation) in metaphase spreads” value in the series on MSS cells was “but not in MSS cells”; in the series on MSI cells, “induced DSBs and fragmentation throughout chromosomes”.
